Patent US20250000971A1, “TLR4 AGONIST FOR MODULATING IMMUNE RESPONSE” (The Children's Medical Center Corporation, priority 2021, published 2025)
“Also recorded” adds a separate entry of the source.

Assays:
[1] = system: wild type murine bone marrow derived dendritic cells (BMDCs); test: TNF and IL-6 production by wild type murine bone marrow derived dendritic cells; assay type: cell-based; details: N=4
[2] = system: Balb/c murine model of SARS-COV-2 immunization; test: Balb/c murine model of SARS-COV-2 immunization with rSpike with or without adjuvant; assay type: in vivo, mice; details: for rSpike immunogenicity: adult (12 weeks) and aged mice (52 weeks), booster on Day 14
[3] = system: pattern recognition receptors (PRR) other than TLR4; test: PRR-transfected HEK reporter cell lines, other PRRs; assay type: cell-based; details: screened at 33 μM
Protocol: (§1) FIGS. 3A-3B. PVP-180 is a novel small molecule TLR4 agonist. FIG. 3A: PVP-180 was screened at 33 μM using pattern recognition receptor (PRR)-transfected HEK reporter cell lines. Cell line responses are also indicated to PRR-specific positive controls as well as a negative control. […] Further assays confirm that PVP-180 chemical stock is free of detectable endotoxin. FIG. 3B: PVP-180 was tested with THP-1 reporter cells as well as THP-1 cells with MyD88, TBK1, or IRF3 knockout. […] Results are reported as a percentage of TNF activity.

[4] = system: NF-KB; test: THP-1 reporter cells and THP-1 cells with MyD88, TBK1 or IRF3 knockout; assay type: cell-based; details: THP-1 reporter cells versus knockout strains
Protocol: as §1

[5] = system: human elderly peripheral blood mononuclear cells (PBMCs); test: Enriched elderly screen: TNF-inducing activity in human elderly PBMCs (384-well); assay type: cell-based; details: screen of 310 molecules, PBMCs of 4 elderly donors, 10% autologous plasma
From the text: FIG. 1A: A graphical overview depicting screen approach. From a high throughput screen previously conducted, 310 molecules were identified to be activators of either THP-1 cells (monocyte cell line) or primary human adult peripheral blood mononuclear cells (PBMCs). These 310 molecules were assembled into a stimulation plate and then applied to the PBMCs of 4 elderly donors (cultured with 10% autologous plasma). […] Z scores were averaged across all 4 elderly donors. The Z score and chemical structure for PVP-180 are indicated.
In a previous high throughput screen (HTS), a number of hit molecules were identified as potentially being able to activate human immune cells. From 200,000 molecules screened, 177 had activity with NF-KB/IRF-inducing and leukocyte adherence/inducing activity. A separate small screen (9,000 molecules of the 200,000) was also conducted and 133 separate molecules had TNF-inducing activity in adult human peripheral blood mononuclear cells (PBMCs). These molecules originated from various bioactive and commercial libraries such as ChemDiv, ChemBridge, and Asinex. All libraries were owned and provided by the Institute of Chemistry and Cell Biology (ICCB)-Longwood (Harvard Medical School). […]

[6] = molecular target: T1, human TLR4 (Homo sapiens, UniProt O00206+Q9Y6Y9); test: PRR-transfected HEK reporter cell lines, TLR4; assay type: cell-based; details: HEK reporter cell line, screened at 33 μM
T1 construct: expressed in transfected cells; host or cells: HEK reporter cell line
T1 sequence (O00206 24-839): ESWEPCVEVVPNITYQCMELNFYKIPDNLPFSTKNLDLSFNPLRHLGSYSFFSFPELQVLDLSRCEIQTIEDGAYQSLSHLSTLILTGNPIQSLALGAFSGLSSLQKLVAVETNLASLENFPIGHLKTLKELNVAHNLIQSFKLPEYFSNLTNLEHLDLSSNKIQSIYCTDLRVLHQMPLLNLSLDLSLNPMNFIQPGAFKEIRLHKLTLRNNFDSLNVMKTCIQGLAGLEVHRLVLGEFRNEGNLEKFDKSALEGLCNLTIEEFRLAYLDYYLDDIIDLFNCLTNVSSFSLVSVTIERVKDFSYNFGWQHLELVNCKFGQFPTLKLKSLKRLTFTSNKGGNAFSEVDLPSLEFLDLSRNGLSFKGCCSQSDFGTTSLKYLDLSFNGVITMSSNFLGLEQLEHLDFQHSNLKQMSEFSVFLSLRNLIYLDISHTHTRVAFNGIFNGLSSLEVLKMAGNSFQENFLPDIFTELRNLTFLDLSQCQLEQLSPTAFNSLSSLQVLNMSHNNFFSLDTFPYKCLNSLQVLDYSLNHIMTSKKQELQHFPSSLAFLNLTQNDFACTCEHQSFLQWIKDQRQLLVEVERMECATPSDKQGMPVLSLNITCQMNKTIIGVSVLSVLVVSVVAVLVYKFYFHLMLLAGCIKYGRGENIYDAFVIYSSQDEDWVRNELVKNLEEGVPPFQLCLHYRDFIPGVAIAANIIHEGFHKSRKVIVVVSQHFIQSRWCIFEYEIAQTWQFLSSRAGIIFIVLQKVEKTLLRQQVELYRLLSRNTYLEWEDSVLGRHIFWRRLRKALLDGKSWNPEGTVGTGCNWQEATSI
T1 sequence (Q9Y6Y9 19-160): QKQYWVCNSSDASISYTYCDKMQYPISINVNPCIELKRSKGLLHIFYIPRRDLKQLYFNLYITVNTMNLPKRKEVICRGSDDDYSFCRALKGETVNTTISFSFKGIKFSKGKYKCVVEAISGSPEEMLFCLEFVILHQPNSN
Protocol: as §1

[7] = system: human adult and elderly PBMCs; test: TNF production in human adult and elderly PBMCs, 96-well format, 24 h stimulation; assay type: cell-based
[8] = system: human adult and elderly PBMCs; test: Cytokine responses of PBMC supernatants by 14-multiplex assay; assay type: cell-based

SMILES: CC1CCc2cc(F)ccc2N1C(=O)c1ccc(N2CC3CC(C2)c2cccc(=O)n2C3)c(NC(=O)c2cccnc2)c1 (centres unmarked) [PVP-180]
- induction of IL-6 production [1]: concentration-dependent induction
- induction of TNF production [1]: concentration-dependent induction
- rSpike immunogenicity [2]: enhanced rSpike immunogenicity
- rSpike immunogenicity ([2]; listed as compound of Formula (I)): enhanced antigen-specific immune response
- adjuvant activity in adult mice ([2]; adult mice, overall IgG at Day 28): adjuvant activity in immunized adult mice. though with a less pronounced effect than in aged mice
- anti-rSpike IgG2 antibodies ([2]; aged mice): increase
- antibody titers versus rSpike alone ([2]; aged mice, overall IgG at Day 28): substantially higher antibody titers
- anti-rSpike IgG1 subtype antibodies ([2]; both adult and aged mice): primarily enhanced the production
- activity toward the other PRRs tested [3]: not the other PRRs tested
- dependence of mechanism on MyD88, TBK1, IRF3 [4]: dependent upon MyD88, TBK1, and IRF3
- TNF-inducing activity toward elderly PBMCs [5]: robust activity
- activity toward TLR4 [6]: strong activity; also recorded: significant activity
- TNF response as fold-change over the positive control (R848) ([7]; at 3 μM and above): more adult-like TNF response
- production of TNF ([7]; elderly and adult PBMCs, stimulated for 24 hours, N=4): titration-dependent production of TNF
- innate immune response (cytokines), elder versus younger adult leucocytes ([8]; 14-multiplex assay): greater innate immune response in elder leucocytes than in younger adult controls
- production of multiple cytokines including TNF, IFNγ and IL-10 ([8]; both populations (adult and elderly PBMCs), PVP-180 at 25 μM, N=4 donors): induced the production of multiple cytokines
- cytokine (TNF, IL-6, IL-10, IL-12, GM-CSF, IFN-γ, IL1-β, IP-10) and/or chemokine (CCL2, CCL5, CXCL8) production ([8]; human PBMC in vitro, compound alone): sufficient to induce cytokine
